We go through nine compounds from article PMC3261944, “The in Vitro Estrogenic Activities of Polyfluorinated Iodine Alkanes” (Environmental Health Perspectives, 2011).

SMILES strings stand for the structures. Where two headings read alike, the source gives them in different places.

One assay relates to MCF-7BUS cells. Nature of the assay: E-screen assay (MCF-7BUS cell proliferation, WST-1). In kind it is cell-based, Human. The conditions noted are these: for E-screen Maximum induction (%): percentage of the maximum proliferation effect of tested compound to that of E2, 6 days exposure; for EC50: Homo sapiens, MCF7/BUS, 144 h, read-out: E-screen EC50; for E-screen Relative potency: ratio of EC50 of E2 to that of test compound. As for the experimental part: (§1) Cell culture. Human MCF-7BUS breast adenocarcinoma cells and MVLN cells were cultured in 100-mm culture dishes in a humidified atmosphere of 5% CO2 at 37°C. Cells were maintained in Dulbecco’s modified Eagle’s medium (DMEM)/F-12 (Hyclone, Logan, UT, USA) containing 10% fetal bovine serum, 100 U/mL streptomycin-penicillin, 2 mM L-glutamine, and 1% insulin-transferrin-selenium supplement (all from Gibco, Grand Island, NY, USA).
E-screen assay. MCF-7BUS cells were kindly provided by A.M. Soto and C. Sonnenschein (Tufts University School of Medicine, Boston, MA, USA). In response to ERα agonists, the mitotic effect leads to the proliferation of MCF-7BUS cells. […] Cells were trypsinized and plated into the interior 60 wells of 96-well plates at the density of 3,000 cells/well. Before each experiment, cells were starved in steroid-free (SF) medium for 48 hr to minimize the basal hormonal activity during assays. SF medium consisted of phenol red–free DMEM/F-12 (Hyclone) supplemented with 5% dextran-charcoal-treated fetal bovine serum (Hyclone), 100 U/mL streptomycin-penicillin, and 2 mM L-glutamine. […] We used a WST-1 proliferation kit (Roche Diagnostics, Mannheim, Germany) to assess proliferation after 6 days of exposure according to the kit instructions. The WST-1 assay is based on the enzymatic cleavage of the tetrazolium salt WST-1 to formazan by cellular mitochondrial dehydrogenases present in viable cells. The absorbance of the WST-1 solution was detected by a microplate reader (Varioskan Flash, Thermo Fisher Scientific, Waltham, MA, USA) at 450 nm, with the reference wave length at 690 nm. The cell proliferation effect was calculated from the solvent control (0.1% ethanol)-corrected absorbance and expressed as the percentage of maximal absorbance of the positive control. Three replicates were used in each experiment.
(§2) The concentration–response analyses were performed with four-parameter logistic curve regression analysis according to the following formula:
(§3) y = minimum + (maximum – minimum) ÷ [1 + (x/EC50)^Hill slope], [1]
(§4) where y is the response value, x is the log concentration of the test compound, and EC50 is the concentration that induces half of the maximum proliferation effect or luciferase activity.
EC50 values were calculated from this nonlinear regression model. EC20 were calculated as […]
On the technique in general: Tetrazolium assays rely on reduction of a dye to a coloured formazan, in cell work by metabolically active cells.

The target of the next assay is T1, ER (Homo sapiens, UniProt P03372).
T1 construct: This cell line was stably transfected with the luciferase reporter gene and estrogen-responsive element derived from the Xenopus vitellogenin A2 gene; endogenous in cells; host or cells: MVLN cells (provided by J.P. Giesy)
T1 sequence (P03372 1-595): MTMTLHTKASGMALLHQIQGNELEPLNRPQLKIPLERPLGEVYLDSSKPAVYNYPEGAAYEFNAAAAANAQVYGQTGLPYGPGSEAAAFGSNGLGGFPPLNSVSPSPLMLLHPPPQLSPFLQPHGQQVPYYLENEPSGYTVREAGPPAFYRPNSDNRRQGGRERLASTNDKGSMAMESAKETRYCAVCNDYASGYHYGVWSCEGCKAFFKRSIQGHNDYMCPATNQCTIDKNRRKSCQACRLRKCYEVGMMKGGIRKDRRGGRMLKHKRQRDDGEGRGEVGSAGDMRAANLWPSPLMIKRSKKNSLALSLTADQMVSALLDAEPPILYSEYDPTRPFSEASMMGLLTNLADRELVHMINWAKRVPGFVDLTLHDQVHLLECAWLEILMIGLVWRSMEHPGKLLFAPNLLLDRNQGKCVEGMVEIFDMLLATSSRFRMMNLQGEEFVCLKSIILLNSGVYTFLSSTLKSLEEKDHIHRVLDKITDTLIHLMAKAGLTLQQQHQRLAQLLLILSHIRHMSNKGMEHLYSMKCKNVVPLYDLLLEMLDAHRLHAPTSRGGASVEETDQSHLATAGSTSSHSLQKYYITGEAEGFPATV
Briefly: MVLN assay (estrogen-responsive luciferase reporter transactivation). It is filed as cell-based. The conditions noted are these: for MVLN assay Maximum induction (%): percentage of the maximum induction (luciferase) of tested compound to that of E2, 2 days exposure; for Luciferase activity on coexposure with OHT: OHT 10 nM coexposed with 100 μM PFHxI, 100 μM PFOI, 100 μM PFBDI, 20 μM PFHxDI or 40 μM PFODI; for MVLN assay Relative potency: footnote: ratio of EC50 of E2 to that of test compound, text: based on EC20; for MVLN assay EC20: luciferase activity, 2 days, from Hill slope and EC50. As for the experimental part:
as §1
MVLN assay. The MVLN cell line was kindly provided by J.P. Giesy (Michigan State University, East Lansing, MI, USA). This cell line was stably transfected with the luciferase reporter gene and estrogen-responsive element derived from the Xenopus vitellogenin A2 gene. […] Cells were seeded in the interior 60 wells of a 96-well ViewPlate (Packard Instrument Company, Boston, MA, USA) at a density of 7 × 10^4 cells/well, starved in SF medium for 48 hr, and exposed to test compounds for 2 days. […] Luciferase activity was measured with the LucLite kit (Packard Instruments) according to the manufacturer’s protocol. We measured luminescence by microplate reader (Varioskan Flash) and integrated the luminescence signal for 10 sec. Total protein content was measured by the Bradford assay (Tiangen, Beijing, China) to normalize luminescent units. The results are given as relative luminescent unit per microgram protein. The maximal induction of positive control (corrected for solvent control, 0.1–0.2% ethanol) was set as 100%, and the responses of other chemicals were converted to a percentage of the maximum level. Three replicates were used in each experiment. The cytotoxicity of tested chemicals was examined by WST-1 kit in parallel and routinely observed under microscope to identify the exposure concentration range.
as §2, §3, §4
EC50 values were calculated from this nonlinear regression model. EC20 were calculated as
ECx = [x/(100 – x)]^(1/Hill slope) × EC50, [2]

The subject of the next assay is EGR3. Nature of the assay: Expression of estrogen-responsive gene EGR3 (quantitative RT-PCR). It is filed as cell-based, Human. The conditions noted are these: MCF-7 cells, 48 hr, vs 0.1% ethanol; 50 μM PFBI, PFHxI, PFOI, PFBDI, PFOA, PFOC, PFOB, 1-iodohexane, 4:2 FTI, 6:2 FTI; 40 μM PFDI, PFDoI, PFODI, 8:2 FTI, 10:2 FTI; 20 μM PFHxDI; 100 pM E2. Here is the method:
RNA isolation and reverse transcription polymerase chain reaction (RT-PCR). MCF-7BUS cells were seeded in six-well plates at the density of 1.0 × 10^6 cells per well, starved in SF medium for 48 hr, and exposed to test compounds for 48 hr. First, cells were rinsed twice with cold phosphate-buffered saline, and total RNA was isolated using Trizol reagent (Invitrogen Inc., Carlsbad, CA, USA) following the manufacturer’s protocol. The 260 nm and 280 nm absorbance reading of total RNA was performed using a Nanodrop spectrophotometer (Thermo Scientific, Waltham, MA, USA). The concentration of RNA was quantified by the reading at 260 nm.
We used a two-step quantitative RT-PCR to quantify gene expression. Total RNA was converted to cDNA using M-MLV (Moloney murine leukemia virus) reverse transcriptase (Promega, Madison, WI, USA) with oligo dT(15), following the manufacturer’s instructions. The final cDNA solution was diluted five times with DNase/RNase-free water (Gibco). Quantitative PCR was performed with a Stratagene MX3005 thermal cycler (Stratagene, La Jolla, CA, USA). PCR reaction mixtures (25 μL) contained 12.5 μL GoTaq Green Master Mix (Promega), 2 μL diluted cDNA, and 0.2 μM sense/antisense primers. The thermal cycle was 5 min at 95°C, followed by 45 cycles of 15 sec at 95°C, 30 sec at 55°C, and 30 sec at 72°C. The primer sequences of early growth response protein 3 (EGR3) were derived from [Terasaka et al. (2004)]. We designed the primers of internal gene β-actin and trefoil factor 1 (TFF1; pS2) with Primer Premier 5 software (Premier Biosoft International, Palo Alto, CA, USA). The primer sequences were as follows: for β-actin (NM_001101), 5´-CACTCT[…]TCCTTCC-3´ (forward) and 5´-[…][…]-3´ (reverse); for EGR3 (NM_004430), 5´-CCATGATTC[…]-3´ (forward) and 5´-GTGGATCTGCTTGTCTTTGAATG-3´ (reverse); and for TFF1 (NM_003225), 5´-AGAAGCG […]-3´ (forward) and 5´-[…][…]-3´ (reverse). The quantification of target gene expression was based on a comparative cycle threshold (Ct) value. We normalized the expression level of each target gene to its reference gene β-actin. The fold change of the target genes was analyzed by the 2^−ΔΔCt method ([Livak and Schmittgen 2001]). We used melting curve analysis and agarose gel electrophoresis to verify the correct PCR products.

The mark [1] stands for this setting: within the tested concentration ranges.

For the compound `FC(F)(F)C(F)(F)C(F)(F)C(F)(F)CCI` [4:2 FTI, 1H,1H,2H,2H-perfluorohexyl iodide], the “E-screen Maximum induction (%)” value in the assay on MCF-7BUS cells is on record as “NDd (The maximum relative proliferation effect was < 7%)”. Further, the “MVLN assay Maximum induction (%)” value on ER is listed as “NDe (The maximum relative luciferase activity was < 5%)”.

In the case of `FC(F)(F)C(F)(F)C(F)(F)C(F)(F)C(F)(F)C(F)(F)CCI` [6:2 FTI, 1H,1H,2H,2H-perfluorooctyl iodide], the “E-screen Maximum induction (%)” value in the assay with MCF-7BUS cells is recorded as “NDd (The maximum relative proliferation effect was < 7%)”. The “MVLN assay Maximum induction (%)” value on ER is given as “NDe (The maximum relative luciferase activity was < 5%)”.

Turning to `FC(F)(F)C(F)(F)C(F)(F)C(F)(F)C(F)(F)C(F)(F)C(F)(F)C(F)(F)CCI` [8:2 FTI, 1H,1H,2H,2H-perfluorodecyl iodide], the “E-screen Maximum induction (%)” value with MCF-7BUS cells is “NDd (The maximum relative proliferation effect was < 7%)”. Moreover, the “MVLN assay Maximum induction (%)” value at ER is given as “NDe (The maximum relative luciferase activity was < 5%)”.

Turning to `FC(F)(F)C(F)(F)C(F)(F)C(F)(F)C(F)(F)C(F)(F)C(F)(F)C(F)(F)C(F)(F)C(F)(F)CCI` [10:2 FTI, 1H,1H,2H,2H-perfluorododecyl iodide], the “E-screen Maximum induction (%)” value in the assay with MCF-7BUS cells is “NDd (The maximum relative proliferation effect was < 7%)”. Moreover, the “MVLN assay Maximum induction (%)” value on ER is “NDe (The maximum relative luciferase activity was < 5%)”.

In the case of `C[C@]12CC[C@@H]3c4ccc(O)cc4CC[C@H]3[C@@H]1CC[C@@H]2O` [E2, 17β-estradiol, reference compound], the EC50 in the assay with MCF-7BUS cells (MCF-7BUS proliferation, 6 days) is 0.00312 nM. For the same compound, the “E-screen Maximum induction (%)” value with MCF-7BUS cells stood at 100%.

For the compound `FC(F)(I)C(F)(F)C(F)(F)C(F)(F)I` [PFBDI, Octafluoro-1,4-diiodobutane], in the assay on MCF-7BUS cells, the EC50 turned out to be 1450 nM, the “E-screen Maximum induction (%)” value is on record as 97% and the “E-screen Relative potency” value is on record as 2.2 × 10^–6. Besides, on ER, it took 29600 nM to reach a half-maximal effect (EC50), the “Luciferase activity on coexposure with OHT” value (from here on “Luciferase activity”) is recorded as “marked reduction of luciferase activity”, the “MVLN assay Relative potency” value is on record as 0.3 × 10^–6 and the “MVLN assay EC20” value worked out at 13800 nM. In addition, the “MVLN assay Maximum induction (%)” value at ER is 21%. Moreover, the “EGR3 mRNA expression, fold up-regulation” value in the assay with EGR3 is 2.4 fold.

In the case of `FC(F)(I)C(F)(F)C(F)(F)C(F)(F)C(F)(F)C(F)(F)I` [PFHxDI, Dodecafluoro-1,6-diiodohexane], in the assay on MCF-7BUS cells, the EC50 turned out to be 7.5 nM, the “E-screen Maximum induction (%)” value came to 100% and the “E-screen Relative potency” value is 4.2 × 10^–4. At ER, the EC50 worked out at 1130 nM, the “Luciferase activity” value is reported as “marked reduction of luciferase activity”, the “MVLN assay Relative potency” value is reported as 1.1 × 10^–5 and the “MVLN assay EC20” value is 380 nM. At ER, the “MVLN assay Maximum induction (%)” value was found to be 73%. The “EGR3 mRNA expression, fold up-regulation” value with EGR3 stood at 9.1 fold.

For `FC(F)(F)C(F)(F)C(F)(F)C(F)(F)C(F)(F)C(F)(F)I` [PFHxI, 1-iodoperfluorohexane], in the assay on MCF-7BUS cells, the EC50 amounted to 630 nM, the “E-screen Maximum induction (%)” value is on record as 99% and the “E-screen Relative potency” value was 4.9 × 10^–6. Besides, in the assay with MCF-7BUS cells (setting [1]), the “Proliferation / estrogenic effect in the E-screen assay (in words)” value is “produced full concentration–response curves”. At ER, the EC50 was 26700 nM, the “Luciferase activity” value was “marked reduction of luciferase activity”, the “MVLN assay Relative potency” value was 0.29 × 10^–6 and the “MVLN assay EC20” value was determined as 14100 nM. The “MVLN assay Maximum induction (%)” value at ER was 47%. Also, the “Luciferase induction / estrogenic effect in the MVLN assay (in words)” value at ER (setting [1]) was “induced luciferase activity in a dose-related manner”. Also, the “EGR3 mRNA expression, fold up-regulation” value with EGR3 is 2.4 fold.

As to `FC(F)(I)C(F)(F)C(F)(F)C(F)(F)C(F)(F)C(F)(F)C(F)(F)C(F)(F)I` [PFODI, Hexadecafluoro-1,8-diiodooctane], in the assay with MCF-7BUS cells, the EC50 is 43.3 nM, the “E-screen Maximum induction (%)” value is on record as 105% and the “E-screen Relative potency” value is 7.2 × 10^–5. Besides, on ER, the EC50 was 2870 nM, the “Luciferase activity” value was “marked reduction of luciferase activity”, the “MVLN assay Relative potency” value is on record as 3.8 × 10^–6 and the “MVLN assay EC20” value was 1070 nM. Moreover, the “MVLN assay Maximum induction (%)” value at ER was 38%. In the assay on EGR3, the “EGR3 mRNA expression, fold up-regulation” value turned out to be 11.2 fold.

Usually EC50 stands for the concentration needed to bring the measured effect to its halfway point.
